Measured values reported in patent publication US20070166415A1, “Safe medicine for treating and preventing cancer and method of use” (priority 2006, published 2007).

How the values were obtained:
[1] = Metabolism (organ and blood radioactivity) of [^3H]-HHT in P388 mice; assay type: in vivo
Protocol: Animals: Adult DBA/2J male mice, 6 to 8 weeks old. All animals weighed approximately 25 g when used in experiments. Each member of which received identical dosed (i.p.) of HHT. Tumor: P388 leukemic cells induced in mice by inoculation with L1210 or P388 leukemic cells (1.0×10^5). After P388 induced in mice 5 days, 1 mg/kg of [^3H]-HHT (100 μC/mg) was injected to mice. […] Mice were killed at 1, 3, 6 and 24 hours after injection of [^3H]-HHT. The key data of HHT in metabolism process are determined counts per minute (CPM) of [^3H]-HHT in organs. CPM is determined by liquid scintillation counting (LSC). The methods of LSC combined with radioactive of [^3H]-HHT can be determined using a tracer of HHT in organs. After killed animals, organs and blood were obtained from P388 mice. […] Other processes are similar to the standard method.

[2] = tested on: salmonella typhimurium TA98; test: Salmonella mutagenicity test, TA98; assay type: cell-based
Protocol: (§1) Methods for detecting carcinogens and mutagens with the salmonellia mutagenicity test are highly efficient in detecting carcinogens and mutagens. Major carcinogens tested have been detected as mutagens. Salmonella mutagenicity assay is very sensitive and simply test for detecting mutagens and carcinogens.
(§2) Mutagenicity assays were carried out at least in triplicate.

[3] = dog, in vivo
Description: Twenty normal adult dogs which weight approximately 10 kg[…] used in experiments.
Most deaths were caused by cardiac dysfunction.

[4] = tested on: salmonella typhimurium TA100; test: Salmonella mutagenicity test, TA100; assay type: cell-based
Protocol: as §1, §2

[5] = tested on: salmonella typhimurium TA97; test: Salmonella mutagenicity test, TA97; assay type: cell-based
Protocol: as §1, §2

COC(=O)C[C@](O)(CCCC(C)(C)O)C(=O)O[C@@H]1C(OC)=C[C@]23CCCN2CCc2cc4c(cc2[C@H]13)OCO4 [HHT, Homoharringtonine]
CPM of [^3H]-HHT, Bone ([1]; 1 hour after 1 mg/kg i.p.): 500 CMP/mg organ
CPM of [^3H]-HHT, Brain ([1]; 1 hour after 1 mg/kg i.p.): 499 CMP/mg organ
CPM of [^3H]-HHT, Contents of intestine ([1]; 1 hour after 1 mg/kg i.p.): 3323 CMP/mg organ
CPM of [^3H]-HHT, Contents of stomach ([1]; 1 hour after 1 mg/kg i.p.): 6821 CMP/mg organ
CPM of [^3H]-HHT, Heart ([1]; 1 hour after 1 mg/kg i.p.): 1403 CMP/mg organ
CPM of [^3H]-HHT, Intestine ([1]; 1 hour after 1 mg/kg i.p.): 1638 CMP/mg organ
CPM of [^3H]-HHT, Kidney ([1]; 1 hour after 1 mg/kg i.p.): 6501 CMP/mg organ
CPM of [^3H]-HHT, Liver ([1]; 1 hour after 1 mg/kg i.p.): 4145 CMP/mg organ
CPM of [^3H]-HHT, Lung ([1]; 1 hour after 1 mg/kg i.p.): 2100 CMP/mg organ
CPM of [^3H]-HHT, Spleen ([1]; 1 hour after 1 mg/kg i.p.): 2828 CMP/mg organ
CPM of [^3H]-HHT, Stomach ([1]; 1 hour after 1 mg/kg i.p.): 1626 CMP/mg organ
CPM of [^3H]-HHT, Bone ([1]; 3 hours after 1 mg/kg i.p.): 560 CMP/mg organ
CPM of [^3H]-HHT, Brain ([1]; 3 hours after 1 mg/kg i.p.): 646 CMP/mg organ
CPM of [^3H]-HHT, Contents of intestine ([1]; 3 hours after 1 mg/kg i.p.): 7215 CMP/mg organ
CPM of [^3H]-HHT, Contents of stomach ([1]; 3 hours after 1 mg/kg i.p.): 84375 CMP/mg organ
CPM of [^3H]-HHT, Heart ([1]; 3 hours after 1 mg/kg i.p.): 1800 CMP/mg organ
CPM of [^3H]-HHT, Intestine ([1]; 3 hours after 1 mg/kg i.p.): 3288 CMP/mg organ
CPM of [^3H]-HHT, Kidney ([1]; 3 hours after 1 mg/kg i.p.): 3121 CMP/mg organ
CPM of [^3H]-HHT, Liver ([1]; 3 hours after 1 mg/kg i.p.): 6718 CMP/mg organ
CPM of [^3H]-HHT, Lung ([1]; 3 hours after 1 mg/kg i.p.): 2427 CMP/mg organ
CPM of [^3H]-HHT, Spleen ([1]; 3 hours after 1 mg/kg i.p.): 2426 CMP/mg organ
CPM of [^3H]-HHT, Stomach ([1]; 3 hours after 1 mg/kg i.p.): 2321 CMP/mg organ
CPM of [^3H]-HHT, Bone ([1]; 6 hours after 1 mg/kg i.p.): 505 CMP/mg organ
CPM of [^3H]-HHT, Brain ([1]; 6 hours after 1 mg/kg i.p.): 793 CMP/mg organ
CPM of [^3H]-HHT, Contents of intestine ([1]; 6 hours after 1 mg/kg i.p.): 6250 CMP/mg organ
CPM of [^3H]-HHT, Contents of stomach ([1]; 6 hours after 1 mg/kg i.p.): 100719 CMP/mg organ
CPM of [^3H]-HHT, Heart ([1]; 6 hours after 1 mg/kg i.p.): 1193 CMP/mg organ
CPM of [^3H]-HHT, Intestine ([1]; 6 hours after 1 mg/kg i.p.): 2475 CMP/mg organ
CPM of [^3H]-HHT, Kidney ([1]; 6 hours after 1 mg/kg i.p.): 3501 CMP/mg organ
CPM of [^3H]-HHT, Liver ([1]; 6 hours after 1 mg/kg i.p.): 4109 CMP/mg organ
CPM of [^3H]-HHT, Lung ([1]; 6 hours after 1 mg/kg i.p.): 1788 CMP/mg organ
CPM of [^3H]-HHT, Spleen ([1]; 6 hours after 1 mg/kg i.p.): 2198 CMP/mg organ
CPM of [^3H]-HHT, Stomach ([1]; 6 hours after 1 mg/kg i.p.): 3703 CMP/mg organ
Number of His^+revertants/plate ([2]; TA98 +S, 0.1 μg/plate): 34 ± 4 revertants/plate
Number of His^+revertants/plate ([2]; TA98 +S, 1 μg/plate): 32 ± 4 revertants/plate
Number of His^+revertants/plate ([2]; TA98 +S, 10 μg/plate): 36 ± 3 revertants/plate
Number of His^+revertants/plate ([2]; TA98 +S, 100 μg/plate): 34 ± 4 revertants/plate
Number of His^+revertants/plate ([2]; TA98 −S, 0.1 μg/plate): 29 ± 3 revertants/plate
Number of His^+revertants/plate ([2]; TA98 −S, 1 μg/plate): 30 ± 3 revertants/plate
Number of His^+revertants/plate ([2]; TA98 −S, 10 μg/plate): 38 ± 4 revertants/plate
Number of His^+revertants/plate ([2]; TA98 −S, 100 μg/plate): 32 ± 4 revertants/plate
reversibility of toxicities observed [3]: completely reversible upon discontinuation of treatment
Number of His^+revertants/plate ([4]; TA100 +S, 0.1 μg/plate): 158 revertants/plate
Number of His^+revertants/plate ([4]; TA100 +S, 1 μg/plate): 152 revertants/plate
Number of His^+revertants/plate ([4]; TA100 +S, 10 μg/plate): 165 revertants/plate
Number of His^+revertants/plate ([4]; TA100 +S, 100 μg/plate): 160 revertants/plate
Number of His^+revertants/plate ([4]; TA100 −S, 0.1 μg/plate): 148 ± 12 revertants/plate
Number of His^+revertants/plate ([4]; TA100 −S, 1 μg/plate): 140 ± 13 revertants/plate
Number of His^+revertants/plate ([4]; TA100 −S, 10 μg/plate): 162 ± 17 revertants/plate
Number of His^+revertants/plate ([4]; TA100 −S, 100 μg/plate): 158 ± 15 revertants/plate
Number of His^+revertants/plate ([5]; TA97 +S, 0.1 μg/plate): 145 ± 14 revertants/plate
Number of His^+revertants/plate ([5]; TA97 +S, 1 μg/plate): 150 ± 14 revertants/plate
Number of His^+revertants/plate ([5]; TA97 +S, 10 μg/plate): 165 ± 16 revertants/plate
Number of His^+revertants/plate ([5]; TA97 +S, 100 μg/plate): 160 ± 17 revertants/plate
Number of His^+revertants/plate ([5]; TA97 −S, 0.1 μg/plate): 120 ± 10 revertants/plate
Number of His^+revertants/plate ([5]; TA97 −S, 1 μg/plate): 130 ± 11 revertants/plate
Number of His^+revertants/plate ([5]; TA97 −S, 10 μg/plate): 160 ± 16 revertants/plate
Number of His^+revertants/plate ([5]; TA97 −S, 100 μg/plate): 150 ± 16 revertants/plate
